The source of these data is patent publication US5302587A, “Platinum (II) complex and agent for treating malignant tumor” (Toray Industries, Inc., priority 1989, dated 1994).

The test system of assay [1] is mouse leukemia cells L1210. Put plainly: Anti-tumor activity in L1210-transplanted mice (Reference Example 3, Table 4). The format is in vivo. The note with it: 0.05% Tween 80, L1210-transplanted CDF1 mice. The protocol:
The Samples A, B and C synthesized in Reference Examples 1 and 2 were evaluated for their anti-tumor activities by the following method:
In the abdominal cavities of CDFl mice (male, 6-week old, 6-10 mice/group), 105 mouse leukemia cells L1210 subcultured in DBA/2 mice were transplanted. Taking the day of transplantation as Day 0, the test drugs were separately administered intraperitoneally to the mice on Day 1, Day 5 and Day 9, totaling 3 times. Each drug was administered after dissolving or suspending it in 0.05% Tween 80 solution. The evaluation of the effectiveness was performed based on the T/C value which is obtained by the following equation as well as the number of survived mice on Day 30. [formula]

Assay [2] relates to Cisplatin-resistant mouse leukemia L1210/CDDP cells. Put plainly: Anti-tumor activity in cisplatin-resistant L1210-transplanted mice (Table 2). The format is in vivo. The note with it: L1210/CDDP-transplanted CDF1 mice. The protocol:
In the abdominal cavities of CDFl mice (male, 6-week old, 5-10 mice/group, 105 mouse leukemia L1210 cells passaged in DBA/2 mice were transplanted. Defining the day of transplantation as Day 0, the compounds 1-5 of the present invention were separately administered intraperitoneally to mice on Day 1, Day 5 and Day 9, totaling 3 times. Each compound was administered after dissolving it in distilled water for injection. The evaluation of the anti-tumor activities of the platinum complexes against the L1210-transplanted mice was performed by T/C value which is obtained by the following equation: [formula]
In the abdominal cavities of CDFl mice (male, 6-week old, 5-10 mice/group), 105 Cisplatin-resistant mouse leukemia L1210/CDDP cells passaged in DBA/2 mice were transplanted. Defining the day of transplantation as Day 0, the compounds of the present invention and control drugs were separately administered intraperitoneally to mice on Day 1, Day 5 and Day 9, totaling 3 times.
The compounds of the present invention and carboplatin were administered after dissolving them in distilled water for injection and cisplatin was used after dissolving it in physiological saline for injection. The effectiveness of the compounds was evaluated by using the T/C value as in Example 7.

The mark [3] stands for this setting: 10 mg/kg i.p. on Day 1, 5 and 9.
Setting [4] is: 25 mg/kg i.p. on Day 1, 5 and 9.
Where [5] appears, read: 50 mg/kg i.p. on Day 1, 5 and 9.
The mark [6] stands for this setting: 100 mg/kg i.p. on Day 1, 5 and 9.
[7] abbreviates: 200 mg/kg i.p. on Day 1, 5 and 9.
Where [8] appears, read: 2.5 mg/kg i.p. on Day 1, 5 and 9.
Setting [9] is: 7.5 mg/kg i.p. on Day 1, 5 and 9.

As for `CC(=O)[C-]1C(=O)CC(C)OC1=O.CC(=O)[C-]1C(=O)CC(C)OC1=O.N[C@@H]1CCCC[C@H]1N.O.[Pt+2]` (relative stereo) [Sample A, [Pt(II)(trans-l-1,2-diaminocyclohexane)](3-acetyl-6-methyltetrahydropyran-2,4-dione)2.H2 O], the “Number of Survived Mice (Day 30)” value in assay [1] (1 mg/kg i.p. on Day 1, 5 and 9) is 0/6; in assay [1] (setting [3]) it was 0/6; in assay [1] (setting [4]), 0/6; in assay [1] (setting [5]), 0/6; in assay [1] (setting [6]), 0/6; in assay [1] (setting [7]) it was 0/6. Besides, the “Survived Days (Mean ± Standard Deviation)” value was 11.5 ± 1.2 days in assay [1] (setting [3]); 14.2 ± 3.2 days in assay [1] (setting [4]); 17.0 ± 3.0 days in assay [1] (setting [5]); 15.5 ± 5.0 days in assay [1] (setting [6]); 6.0 days in assay [1] (setting [7]). Besides, the T/C (usually the ratio of treated to control) in assay [1] (setting [3]) is 137%; in assay [1] (setting [4]) it was 169%; in assay [1] (setting [5]) it was 202%; in assay [1] (setting [6]), 185%; in assay [1] (setting [7]), 71%.

Consider `CC(=O)[C-]1C(=O)CC(C)OC1=O.CC(=O)[C-]1C(=O)CC(C)OC1=O.N[C@@H]1CCCC[C@H]1N.O.[Pt+2]` (relative stereo) [Sample B, [Pt(II)(trans-l-1,2-diaminocyclohexane)](3-acetyl-6-methyltetrahydropyran-2,4-dione)2.H2 O], for which the “Number of Survived Mice (Day 30)” value in assay [1] (setting [4]), in assay [1] (setting [5]), in assay [1] (setting [6]) and in assay [1] (setting [7]) was 0/6 throughout. Further, the “Survived Days (Mean ± Standard Deviation)” value in assay [1] (setting [4]) came to 8.5 ± 0.5 days; in assay [1] (setting [5]), 8.8 ± 0.8 days; in assay [1] (setting [6]), 9.2 ± 1.5 days; in assay [1] (setting [7]), 9.5 ± 2.3 days. In addition, the T/C is reported as 101% in assay [1] (setting [4]), 105% in assay [1] (setting [5]), 110% in assay [1] (setting [6]) and 113% in assay [1] (setting [7]).

Take `CC(=O)[C-]1C(=O)CCOC1=O.CC(=O)[C-]1C(=O)CCOC1=O.N[C@@H]1CCCC[C@H]1N.O.[Pt+2]` (relative stereo) [Sample C, [Pt(II)(trans-l-1,2-diaminocyclohexane)](3-acetyltetrahydropyran-2,4-dione)2.H2 O]: the “Number of Survived Mice (Day 30)” value is reported as 0/6 in assay [1] (1 mg/kg i.p. on Day 1, 5 and 9); 0/6 in assay [1] (setting [3]); 0/6 in assay [1] (setting [4]); 0/6 in assay [1] (setting [5]); 0/6 in assay [1] (setting [6]); 0/6 in assay [1] (setting [7]). Besides, the “Survived Days (Mean ± Standard Deviation)” value was determined as 8.7 ± 0.8 days in assay [1] (1 mg/kg i.p. on Day 1, 5 and 9); 9.8 ± 1.6 days in assay [1] (setting [3]); 9.5 ± 0.5 days in assay [1] (setting [4]); 8.7 ± 2.2 days in assay [1] (setting [5]); 8.3 ± 0.8 days in assay [1] (setting [6]); 6.2 ± 1.5 days in assay [1] (setting [7]). In addition, the T/C in assay [1] (1 mg/kg i.p. on Day 1, 5 and 9) is recorded as 104%; in assay [1] (setting [3]), 117%; in assay [1] (setting [4]) it was 113%; in assay [1] (setting [5]) it was 104%; in assay [1] (setting [6]) it was 99%; in assay [1] (setting [7]), 74%.

Take `N.N.O=C([O-])C1(C(=O)[O-])CCC1.[Pt+2]` [Carboplatin]: the “Number of Survived Mice (Day 30)” value in assay [2] (setting [4]), in assay [2] (setting [5]), in assay [2] (setting [6]) and in assay [2] (setting [7]) was 0/6 in each case. Besides, the “Survived Days (Mean ± Standard Deviation)” value in assay [2] (setting [4]) was determined as 9.0 ± 1.1 days; in assay [2] (setting [5]), 9.7 ± 0.8 days; in assay [2] (setting [6]), 9.3 ± 0.8 days; in assay [2] (setting [7]), 7.3 ± 1.5 days. For the same compound, the T/C worked out at 99% in assay [2] (setting [4]), 107% in assay [2] (setting [5]), 102% in assay [2] (setting [6]) and 80% in assay [2] (setting [7]).

`N.N.[Cl][Pt][Cl]` [Cisplatin]: the “Number of Survived Mice (Day 30)” value is listed as 0/6 in assay [2] (setting [8]); 0/6 in assay [2] (5 mg/kg i.p. on Day 1, 5 and 9); 0/6 in assay [2] (setting [3]); 0/6 in assay [2] (setting [4]); 0/6 in assay [1] (setting [8]); 0/5 in assay [1] (5 mg/kg i.p. on Day 1, 5 and 9). Besides, the “Number of Survived Mice (Day 30)” value in assay [1] (setting [9]) is reported as 0/6. Further, the “Survived Days (Mean ± Standard Deviation)” value was determined as 9.3 ± 1.0 days in assay [2] (setting [8]); 8.3 ± 0.5 days in assay [2] (5 mg/kg i.p. on Day 1, 5 and 9); 8.7 ± 0.8 days in assay [2] (setting [3]); 7.2 ± 1.6 days in assay [2] (setting [4]); 13.0 ± 2.3 days in assay [1] (setting [8]); 13.8 ± 1.1 days in assay [1] (5 mg/kg i.p. on Day 1, 5 and 9). Also, in assay [1] (setting [9]), the “Survived Days (Mean ± Standard Deviation)” value is 18.3 ± 6.2 days. Also, the T/C in assay [2] (setting [8]) worked out at 102%; in assay [2] (5 mg/kg i.p. on Day 1, 5 and 9) it was 91%; in assay [2] (setting [3]) it was 96%; in assay [2] (setting [4]), 79%; in assay [1] (setting [8]), 155%; in assay [1] (5 mg/kg i.p. on Day 1, 5 and 9), 164%. The T/C in assay [1] (setting [9]) was 218%.
